Results reported in US12691105B2, “Compositions containing nicotinamide and vitamin B6 and methods of using such compositions for treating cachexia or precachexia” (SOCIETE DES PRODUITS NESTLE S.A., priority 2020, dated 2026).

Assays:
Human primary myoblasts = assay: Myogenic amplification and commitment of muscle stem cells (Pax7/MyoD staining); format: cell-based; conditions: dose response, donors 1 and 2 pooled, 96 hours, control DMSO 1%; for proportion of MyoD+ cells (normalized to total cell number, fold change compared to control): FIG. 1B/2B
Protocol: Human Skeletal Muscle Myoblasts were purchased from Lonza (https://bioscience.lonza.com). These cells were isolated from the upper arm or leg muscle tissue of normal donors and used after the second passage. Several donors were tested to ensure cell viability and purity before selecting the final donors, which are a person (refer thereafter as Donor 1), a person (refer thereafter as Donor 2) and a person (refer thereafter as Donor 3). Human primary myoblasts were seeded in 384 well plates at a density of 1′000 cells per well in skeletal muscle growth medium (SKM-M, AMSbio). For treatment, compounds were directly added to the myoblast cultures 16 hours after initial plating. All cultures were then grown for 96 hours. Cells were stained for Pax7 and MyoD expression using antibodies directed against Pax7 and MyoD and counterstained with Hoechst 33342 to visualize cell nuclei. Pax7+ cells are defined as cells that express Pax7 regardless of MyoD expression. […] Image acquisition was performed using the ImageXpress (Molecular Devices) platform. Custom module analysis based on Multi-Wavelength Cell Scoring of the MetaXpress software was used for quantification. *, **, ***, **** indicates difference from the control, One-way ANOVA, with p<0.05, p<0.01, p<0.001, p<0.0001, respectively. Data are presented as Mean+/−SEM Human primary myoblasts from different donors (donor 1, donor 2 or donor 3) were seeded in 384 well plates at a density of 1′000 cells per well in skeletal muscle growth medium (SKM-M, AMSbio). For treatment, compounds were directly added to the myoblast cultures 16 hours after initial plating. All cultures were then grown for 96 hours. Cells were stained for Pax7 and MyoD expression using antibodies directed against Pax7 and MyoD and counterstained with Hoechst 33342 to visualize cell nuclei. Pax7+ cells are defined as cells that express Pax7 regardless of MyoD expression. […] Custom module analysis based on Multi-Wavelength Cell Scoring of the MetaXpress software was used for quantification. […] Data are expressed as number of cells per arear of injured muscle.

[1] = tested on: PC-3 cell line (prostate adenocarcinoma); assay: Safety of compounds as non-oncogenic: cancer cell proliferation, PC-3; format: cell-based, human; conditions: FIG. 7A, serum and FGF positive controls
Protocol: (§1) The safety of the compounds was tested in two different human cancer cell lines purchased from ATCC. FIG. 7A cell line PC-3 was of prostate/adenocarcinoma from a person, and FIG. 7B cell line PANC-1 was from a pancreatic duct epitheloid carcinoma from a person. Serum and FGF (Fibroblast Growth Factor) conditions were used as positive controls. *, **, ***, **** indicates difference from the control, One-way ANOVA, with p<0.05, p<0.01, p<0.001, p<0.0001, respectively. Data are presented as Mean+/−SEM.
(§2) The safety of the compounds were tested in two different human cancer cell lines purchased from ATCC. Serum and FGF (Fibroblast Growth Factor) conditions were used as positive controls. *, **, ***, **** indicates difference from the control, One-way ANOVA, with p<0.05, p<0.01, p<0.001, p<0.0001, respectively. Data are presented as Mean+/−SEM.
Cell line PC-3 of prostate/adenocarcinoma from a person (FIG. 7A)

[2] = tested on: PANC-1 cell line (pancreatic duct epitheloid carcinoma); assay: Safety of compounds as non-oncogenic: cancer cell proliferation, PANC-1; format: cell-based, human; conditions: FIG. 7B, serum and FGF positive controls
Protocol: as §1, §2
Cell line PANC-1 was from a pancreatic duct epitheloid carcinoma from a person (FIG. 7B).

## NC(=O)c1cccnc1 [Nicotinamide]
Human primary myoblasts; FIG. 1A
  proportion of Pax7+ cells (normalized to total cell number, fold change compared to control): increasing the proportion of both amplifying (Pax7+) and differentiating (MyoD+) cells in a dose dependent manner
Human primary myoblasts
  proportion of MyoD+ cells (normalized to total cell number, fold change compared to control): increasing the proportion of both amplifying (Pax7+) and differentiating (MyoD+) cells in a dose dependent manner
[1]
  proliferation of cancer cells: no effect on the proliferation of cancer cells
[2]
  proliferation of cancer cells: no effect on the proliferation of cancer cells

## Cc1ncc(CO)c(CO)c1O [Pyridoxine]
Human primary myoblasts
  proportion of MyoD+ cells (normalized to total cell number, fold change compared to control): increasing the proportion of differentiating (MyoD+) cells in a dose dependent manner
[1]
  proliferation of cancer cells: no effect on the proliferation of cancer cells
[2]
  proliferation of cancer cells: no effect on the proliferation of cancer cells
